From PubChem BioAssay AID192 (DTP/NCI, 2004)
Values joined by “and” are separate entries in the source; they are usually repeats but may differ in a detail not shown here. Identical values can stand only once. Toxic doses and inconclusive results are not listed.

System: BDF1 mice, B16 melanoma ip, median survival T/C
Assay: NCI In Vivo Anticancer Drug Screen. Data for tumor model B16 Melanoma (intraperitoneal) in B6D2F1 (BDF1) mice
Conditions: endpoint: median survival time, higher = longer survival
How it was run: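 Tumor-bearing mice received test compound or vehicle. Survival or tumor size was then measured in both groups. The treated-group figure was divided by the control-group figure.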

[1] = dose: 6.25 mg/kg/injection, schedule: Q01DX009 (ip), vehicle: Klucel (hydroxypropylcellulose) (HPC)
[2] = dose: 12.5 mg/kg/injection, schedule: Q01DX009 (ip), vehicle: Klucel (hydroxypropylcellulose) (HPC)
[3] = dose: 25.0 mg/kg/injection, schedule: Q01DX009 (ip), vehicle: Klucel (hydroxypropylcellulose) (HPC)
[4] = dose: 50.0 mg/kg/injection, schedule: Q01DX009 (ip), vehicle: Klucel (hydroxypropylcellulose) (HPC)
[5] = dose: 50.0 mg/kg/injection, schedule: Q01DX009 (ip), vehicle: saline with Tween-80
[6] = dose: 100.0 mg/kg/injection, schedule: Q01DX009 (ip), vehicle: saline with Tween-80
[7] = dose: 200.0 mg/kg/injection, schedule: Q01DX009 (ip), vehicle: saline with Tween-80
[8] = dose: 100.0 mg/kg/injection, schedule: Q01DX009 (ip), vehicle: Klucel (hydroxypropylcellulose) (HPC)

In the case of `O=C(O)c1c2c(nc3ccccc13)Cc1ccccc1-2`, the T/C (dose: 3.12 mg/kg/injection, schedule: Q01DX009 (ip), vehicle: Klucel (hydroxypropylcellulose) (HPC)) is reported as 100 % of control, the T/C [1] is reported as 96 % of control and 103 % of control and the T/C (dose: 6.25 mg/kg/injection, schedule: Q01DX009 (ip), vehicle: water) is reported as 89 % of control. For the same compound, the T/C [2] was 98 % of control and 103 % of control and 119 % of control, the T/C (dose: 12.5 mg/kg/injection, schedule: Q01DX009 (ip), vehicle: water) was 96 % of control and 108 % of control and the T/C (dose: 25.0 mg/kg/injection, schedule: Q01DX009 (ip), vehicle: water) was 112 % of control and 114 % of control. The T/C (dose: 30.0 mg/kg/injection, schedule: Q03HX008 (ip), vehicle: water) was 96 % of control, the T/C (dose: 30.0 mg/kg/injection, schedule: Q03HX016 (ip), vehicle: water) was 107 % of control and the T/C (dose: 30.0 mg/kg/injection, schedule: Q03HX024 (ip), vehicle: water) was 101 % of control. For the same compound, the T/C (dose: 44.0 mg/kg/injection, schedule: Q01DX005 (iv), vehicle: water) was 102 % of control, the T/C (dose: 44.0 mg/kg/injection, schedule: Q01DX009 (ip), vehicle: water) was 120 % of control and the T/C (dose: 44.0 mg/kg/injection, schedule: Q01DX009 (sc), vehicle: water) was 102 % of control. For the same compound, the T/C (dose: 44.0 mg/kg/injection, schedule: Q03HX008 (ip), vehicle: water) was 118 % of control, the T/C (dose: 44.0 mg/kg/injection, schedule: Q03HX016 (ip), vehicle: water) was 102 % of control and the T/C (dose: 44.0 mg/kg/injection, schedule: Q03HX024 (ip), vehicle: water) was 118 % of control. For the same compound, the T/C (dose: 67.0 mg/kg/injection, schedule: Q01DX001 (ip), vehicle: water) was 107 % of control, the T/C (dose: 67.0 mg/kg/injection, schedule: Q01DX005 (iv), vehicle: water) was 92 % of control and the T/C (dose: 67.0 mg/kg/injection, schedule: Q01DX009 (ip), vehicle: water) was 169 % of control. For the same compound, the T/C (dose: 67.0 mg/kg/injection, schedule: Q01DX009 (oral), vehicle: water) was 99 % of control, the T/C (dose: 67.0 mg/kg/injection, schedule: Q01DX009 (sc), vehicle: water) was 108 % of control and the T/C (dose: 67.0 mg/kg/injection, schedule: Q03HX008 (ip), vehicle: water) was 106 % of control. The T/C (dose: 67.0 mg/kg/injection, schedule: Q03HX016 (ip), vehicle: water) was 104 % of control, the T/C (dose: 67.0 mg/kg/injection, schedule: Q03HX024 (ip), vehicle: water) was 112 % of control and the T/C (dose: 67.0 mg/kg/injection, schedule: Q04DX003 (ip), vehicle: water) was 116 % of control. The T/C (dose: 67.0 mg/kg/injection, schedule: Q08DX002 (ip), vehicle: water) was 106 % of control, the T/C (dose: 89.0 mg/kg/injection, schedule: Q01DX001 (ip), vehicle: Klucel (hydroxypropylcellulose) (HPC)) was 106 % of control and the T/C (dose: 100.0 mg/kg/injection, schedule: Q01DX001 (ip), vehicle: water) was 102 % of control. The T/C (dose: 100.0 mg/kg/injection, schedule: Q01DX001 (oral), vehicle: water) was 101 % of control, the T/C (dose: 100.0 mg/kg/injection, schedule: Q01DX005 (iv), vehicle: water) was 100 % of control and the T/C (dose: 100.0 mg/kg/injection, schedule: Q01DX009 (oral), vehicle: water) was 94 % of control. For the same compound, the T/C (dose: 100.0 mg/kg/injection, schedule: Q01DX009 (sc), vehicle: water) was 108 % of control, the T/C (dose: 100.0 mg/kg/injection, schedule: Q03HX008 (ip), vehicle: water) was 120 % of control and the T/C (dose: 100.0 mg/kg/injection, schedule: Q03HX016 (ip), vehicle: water) was 118 % of control. For the same compound, the T/C (dose: 100.0 mg/kg/injection, schedule: Q03HX024 (ip), vehicle: water) was 112 % of control, the T/C (dose: 100.0 mg/kg/injection, schedule: Q04DX003 (ip), vehicle: water) was 110 % of control and the T/C (dose: 100.0 mg/kg/injection, schedule: Q08DX002 (ip), vehicle: water) was 113 % of control. The T/C (dose: 133.0 mg/kg/injection, schedule: Q01DX009 (ip), vehicle: Klucel (hydroxypropylcellulose) (HPC)) was 156 % of control, the T/C (dose: 133.0 mg/kg/injection, schedule: Q04DX003 (ip), vehicle: Klucel (hydroxypropylcellulose) (HPC)) was 124 % of control and the T/C (dose: 150.0 mg/kg/injection, schedule: Q01DX001 (ip), vehicle: water) was 98 % of control and 104 % of control. For the same compound, the T/C (dose: 150.0 mg/kg/injection, schedule: Q01DX001 (oral), vehicle: water) was 98 % of control, the T/C (dose: 150.0 mg/kg/injection, schedule: Q01DX005 (iv), vehicle: water) was 102 % of control and the T/C (dose: 150.0 mg/kg/injection, schedule: Q01DX009 (oral), vehicle: water) was 90 % of control. For the same compound, the T/C (dose: 150.0 mg/kg/injection, schedule: Q01DX009 (sc), vehicle: water) was 115 % of control, the T/C (dose: 150.0 mg/kg/injection, schedule: Q03HX008 (ip), vehicle: water) was 121 % of control and the T/C (dose: 150.0 mg/kg/injection, schedule: Q04DX003 (ip), vehicle: water) was 108 % of control and 122 % of control. For the same compound, the T/C (dose: 150.0 mg/kg/injection, schedule: Q08DX002 (ip), vehicle: water) was 121 % of control, the T/C (dose: 200.0 mg/kg/injection, schedule: Q01DX001 (ip), vehicle: Klucel (hydroxypropylcellulose) (HPC)) was 124 % of control and the T/C (dose: 200.0 mg/kg/injection, schedule: Q01DX009 (ip), vehicle: water) was 152 % of control. For the same compound, the T/C (dose: 225.0 mg/kg/injection, schedule: Q01DX001 (ip), vehicle: water) was 93 % of control and 110 % of control, the T/C (dose: 225.0 mg/kg/injection, schedule: Q01DX001 (oral), vehicle: water) was 94 % of control and the T/C (dose: 225.0 mg/kg/injection, schedule: Q01DX005 (iv), vehicle: water) was 104 % of control. The T/C (dose: 225.0 mg/kg/injection, schedule: Q01DX009 (oral), vehicle: water) was 92 % of control, the T/C (dose: 225.0 mg/kg/injection, schedule: Q01DX009 (sc), vehicle: water) was 104 % of control and the T/C (dose: 225.0 mg/kg/injection, schedule: Q04DX003 (ip), vehicle: water) was 107 % of control and 111 % of control. The T/C (dose: 225.0 mg/kg/injection, schedule: Q08DX002 (ip), vehicle: water) was 111 % of control, the T/C (dose: 337.0 mg/kg/injection, schedule: Q01DX001 (ip), vehicle: water) was 98 % of control and the T/C (dose: 337.0 mg/kg/injection, schedule: Q01DX001 (oral), vehicle: water) was 99 % of control. The T/C (dose: 337.0 mg/kg/injection, schedule: Q01DX009 (oral), vehicle: water) was 97 % of control, the T/C (dose: 337.0 mg/kg/injection, schedule: Q04DX003 (ip), vehicle: water) was 105 % of control and 112 % of control and the T/C (dose: 450.0 mg/kg/injection, schedule: Q01DX001 (ip), vehicle: Klucel (hydroxypropylcellulose) (HPC)) was 111 % of control. The T/C (dose: 506.0 mg/kg/injection, schedule: Q01DX001 (oral), vehicle: water) was 93 % of control.

`O=c1[nH]cnc2ccc(Cl)cc12` was tested, and the T/C (dose: 37.5 mg/kg/injection, schedule: Q01DX009 (ip), vehicle: saline with Tween-80) was 102 % of control and the T/C (dose: 75.0 mg/kg/injection, schedule: Q01DX009 (ip), vehicle: saline with Tween-80) was 102 % of control.

With `C=C1C(=O)OC2CC1C(OC(C)=O)CC1(C)OC1CCC1(C)OC1CCC2(C)O` (stereo not drawn) the T/C [1] was 102 % of control, the T/C [2] was 97 % of control and the T/C [3] was 100 % of control. The T/C [4] was 92 % of control.

With `CC(=O)ON(C(C)=O)c1ccc(C(N)=O)cc1` the T/C (dose: 25.0 mg/kg/injection, schedule: Q01DX009 (ip), vehicle: saline with Tween-80) was 91 % of control, the T/C [5] was 89 % of control and the T/C [6] was 86 % of control. For the same compound, the T/C [7] was 88 % of control and the T/C (dose: 400.0 mg/kg/injection, schedule: Q01DX009 (ip), vehicle: saline with Tween-80) was 94 % of control.

For `Cc1cc(C)c(-c2cc(O)c(C)cc2O)c(C)c1`, the T/C [2] was 95 % of control, the T/C [3] was 97 % of control and the T/C [4] was 97 % of control. The T/C [8] was 93 % of control and the T/C (dose: 200.0 mg/kg/injection, schedule: Q01DX009 (ip), vehicle: Klucel (hydroxypropylcellulose) (HPC)) was 90 % of control.

For `COc1cc(C(=O)N=Nc2c(O)[nH]c3ccc(Br)cc23)cc(OC)c1OC`, the T/C [3] was 98 % of control, the T/C [4] was 109 % of control and the T/C [8] was 86 % of control.

For `O=C(OC1C=CC2CCC1C2)c1ccc([N+](=O)[O-])cc1` (stereo not drawn), the T/C [5] was 91 % of control, the T/C [6] was 96 % of control and the T/C [7] was 93 % of control.
